Experimental data from patent US11986471B2, “Compounds and methods of use” (Tango Therapeutics, Inc., priority 2018, dated 2024).

Legend:
PRMT5 [1] = biological target: T1, PRMT5 (Homo sapiens, UniProt O14744); test: PRMT5 IC50 assay with no cofactor; assay type: biochemical
T1 construct: purchased Viva (custom protein)
How it was run: (§1)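 Potency against PRMT5 is compared across cofactor states, where IC50 equals Ki×1.5 with SAM present and Ki×13.5 with MTA present.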

PRMT5 [2] = biological target: T1, PRMT5; test: PRMT5 IC50 assay in the presence of MTA as cofactor; assay type: biochemical; conditions: for IC50: PRMT5, MTA as cofactor; for SAM/MTA Ratio: ratio between the Ki in the presence of SAM and the Ki in the presence of MTA
How it was run: as §1

HAP1 MTAP-intact = test: SDMA in-cell western assay, HAP1 MTAP-intact cell line; assay type: cell-based; conditions: Homo sapiens
How it was run: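 IC50 values come from SDMA in-cell western staining of HAP1 cells. The MTAP-intact line carries endogenous MTAP, while its MTAP-deleted counterpart lacks MTAP entirely. A selectivity ratio of at least 3 fold marks a compound as MTAP-selective.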

PRMT5 [3] = biological target: T1, PRMT5; test: PRMT5 IC50 assay in the presence of SAM as cofactor; assay type: biochemical
How it was run: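 IC50 against PRMT5 determined with SAM as cofactor, with no cofactor, and with MTA as cofactor. Ki derived as IC50/1.5 for the SAM assay and IC50/13.5 for the MTA assay; SAM Ki to MTA Ki ratio also reported.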

HAP1 MTAP-deleted = test: SDMA in-cell western assay, HAP1 MTAP-deleted cell line; assay type: cell-based; conditions: for IC50: Homo sapiens, HAP1 MTAP-deleted cell line; for MTAP Intact/Deleted Ratio: IC50 ratio HAP1 MTAP-intact / HAP1 MTAP-deleted
How it was run: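 Readout is cellular SDMA signal by in-cell western, with IC50 values derived from it. The cells are MTAP-null HAP1, matched to an isogenic MTAP-intact HAP1 line.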

T1 sequence (O14744 whole entry): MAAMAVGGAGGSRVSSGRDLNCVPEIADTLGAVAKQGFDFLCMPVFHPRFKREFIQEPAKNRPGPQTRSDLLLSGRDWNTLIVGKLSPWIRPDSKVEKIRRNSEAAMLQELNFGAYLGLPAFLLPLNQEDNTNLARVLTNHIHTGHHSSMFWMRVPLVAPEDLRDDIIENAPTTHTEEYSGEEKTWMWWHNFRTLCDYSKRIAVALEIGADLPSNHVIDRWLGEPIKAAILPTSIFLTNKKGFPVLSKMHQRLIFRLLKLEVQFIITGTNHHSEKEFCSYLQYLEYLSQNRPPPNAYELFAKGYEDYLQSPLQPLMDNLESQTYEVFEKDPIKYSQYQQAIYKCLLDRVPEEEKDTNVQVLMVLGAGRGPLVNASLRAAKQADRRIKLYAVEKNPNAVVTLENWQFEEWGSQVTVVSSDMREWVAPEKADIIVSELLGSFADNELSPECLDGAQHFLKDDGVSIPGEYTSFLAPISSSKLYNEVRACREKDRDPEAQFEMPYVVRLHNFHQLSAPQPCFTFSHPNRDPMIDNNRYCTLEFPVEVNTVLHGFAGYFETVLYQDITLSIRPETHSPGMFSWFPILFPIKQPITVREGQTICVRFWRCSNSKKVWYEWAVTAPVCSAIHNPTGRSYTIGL
T1 sequence (Q9BQA1 whole entry partner): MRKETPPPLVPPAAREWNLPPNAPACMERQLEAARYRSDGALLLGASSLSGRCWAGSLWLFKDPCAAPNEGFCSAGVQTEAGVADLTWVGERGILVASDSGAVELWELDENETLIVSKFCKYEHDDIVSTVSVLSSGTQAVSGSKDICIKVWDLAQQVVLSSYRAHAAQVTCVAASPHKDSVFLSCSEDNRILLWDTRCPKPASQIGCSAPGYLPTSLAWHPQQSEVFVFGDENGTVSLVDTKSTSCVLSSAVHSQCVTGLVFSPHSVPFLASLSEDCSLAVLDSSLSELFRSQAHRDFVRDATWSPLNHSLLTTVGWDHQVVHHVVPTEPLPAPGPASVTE

| SMILES | IC50 (PRMT5 [1]) | IC50 (PRMT5 [2]) | IC50 (HAP1 MTAP-intact) | IC50 (PRMT5 [3]) | IC50 (HAP1 MTAP-deleted) | SAM/MTA Ratio (PRMT5 [2]) | MTAP Intact/Deleted Ratio (HAP1 MTAP-deleted) |
| --- | --- | --- | --- | --- | --- | --- | --- |
| COc1cc(C(=O)NC[C@H](O)CN2CCc3cc(OCc4ocnc4C)ccc3C2)cc(NC2CCN(C(C)=O)CC2)n1 [Compound 599, (S)-2-((1-acetylpiperidin-4-yl)amino)-N-(2-hydroxy-3-(6-((4-methyloxazol-5-yl)methoxy)-3,4-dihydroisoquinolin-2(1H)-yl)propyl)-6-methoxyisonicotinamide] | 500 to 5000 nM | 50 to 500 nM | 1000 to 10000 nM | 50 to 500 nM | < 1000 nM | A (a Ki ratio greater than or equal to 10 fold between the Ki in the presence of SAM and the Ki in the presence of MTA) | A* (an IC50 ratio greater than or equal to 10 fold between the IC50 in the HAP1 MTAP-intact cell line and the HAP1 MTAP-deleted cell line) |
| Cc1ncoc1COc1cc2c(cc1F)CN(C[C@@H](O)CNC(=O)c1ccnc(Nc3cccnc3)c1)CC2 [Compound 600, N-[(2S)-3-[7-fluoro-6-[(4-methyloxazol-5-yl)methoxy]-3,4-dihydro-1H-isoquinolin-2-yl]-2-hydroxy-propyl]-2-(3-pyridylamino)pyridine-4-carboxamide] | ≥ 5000 nM | 50 to 500 nM | ≥ 10000 nM | 50 to 500 nM | 1000 to 10000 nM | A (a Ki ratio greater than or equal to 10 fold between the Ki in the presence of SAM and the Ki in the presence of MTA) | B* (an IC50 ratio greater than or equal to 3 fold but lower than 10 fold between the IC50 in the HAP1 MTAP-intact cell line and the HAP1 MTAP-deleted cell line) |
| Cc1ncoc1COc1ccc2c(c1)CCN(C[C@@H](O)CNC(=O)c1cc(Nc3cccnc3)nc(N3CCCCC3)c1)C2 [Compound 601] | 500 to 5000 nM | < 50 nM | < 1000 nM | 50 to 500 nM | < 1000 nM | A (a Ki ratio greater than or equal to 10 fold between the Ki in the presence of SAM and the Ki in the presence of MTA) | B* (an IC50 ratio greater than or equal to 3 fold but lower than 10 fold between the IC50 in the HAP1 MTAP-intact cell line and the HAP1 MTAP-deleted cell line) |
| Cc1ncoc1COc1ccc2c(c1)CCN(C[C@@H](O)CNC(=O)c1cc(Nc3cccnc3)nc(N3[C@@H]4CC[C@H]3COC4)c1)C2 [Compound 603, 2-((1R,5S)-3-oxa-8-azabicyclo[3.2.1]octan-8-yl)-N—((S)-2-hydroxy-3-(6-((4-methyloxazol-5-yl)methoxy)-3,4-dihydroisoquinolin-2(1H)-yl)propyl)-6-(pyridin-3-ylamino)isonicotinamide] | 500 to 5000 nM | < 50 nM | 1000 to 10000 nM | 50 to 500 nM | < 1000 nM | A (a Ki ratio greater than or equal to 10 fold between the Ki in the presence of SAM and the Ki in the presence of MTA) | B* (an IC50 ratio greater than or equal to 3 fold but lower than 10 fold between the IC50 in the HAP1 MTAP-intact cell line and the HAP1 MTAP-deleted cell line) |
| Cc1ncoc1COc1ccc2c(c1)CCN(C[C@@H](O)CNC(=O)c1cc(NC3CCC3)ncc1Cl)C2 [Compound 607, 5-chloro-2-(cyclobutylamino)-N-[(2S)-2-hydroxy-3-[6-[(4-methyloxazol-5-yl)methoxy]-3,4-dihydro-1H-isoquinolin-2-yl]propyl]pyridine-4-carboxamide] | ≥ 5000 nM | 50 to 500 nM | < 1000 nM | 50 to 500 nM | < 1000 nM | A (a Ki ratio greater than or equal to 10 fold between the Ki in the presence of SAM and the Ki in the presence of MTA) | C* (an IC50 ratio of less than 3 fold between the IC50 in the HAP1 MTAP-intact cell line and the HAP1 MTAP-deleted cell line) |
| Cc1ncoc1COc1ccc2c(c1)CCN(C[C@@H](O)CNC(=O)c1ccnc(NC3CC4(CCC4)C3)c1)C2 [Compound 609, (S)—N-(2-hydroxy-3-(6-((4-methyloxazol-5-yl)methoxy)-3,4-dihydroisoquinolin-2(1H)-yl)propyl)-2-(spiro[3.3]heptan-2-ylamino)isonicotinamide] | 500 to 5000 nM | < 50 nM | 1000 to 10000 nM | 500 to 5000 nM | < 1000 nM | A (a Ki ratio greater than or equal to 10 fold between the Ki in the presence of SAM and the Ki in the presence of MTA) | B* (an IC50 ratio greater than or equal to 3 fold but lower than 10 fold between the IC50 in the HAP1 MTAP-intact cell line and the HAP1 MTAP-deleted cell line) |
| Cc1ncoc1COc1ccc2c(c1)CCN(C[C@@H](O)CNC(=O)c1cc(NC3CC4(CCC4)C3)nc(N3CCN(C(=O)C4CC4)CC3)c1)C2 [Compound 610, (S)-2-(4-(cyclopropanecarbonyl)piperazin-1-yl)-N-(2-hydroxy-3-(6-((4-methyloxazol-5-yl)methoxy)-3,4-dihydroisoquinolin-2(1H)-yl)propyl)-6-(spiro[3.3]heptan-2-ylamino)isonicotinamide] | 50 to 500 nM | < 50 nM | 1000 to 10000 nM | 50 to 500 nM | 1000 to 10000 nM | A (a Ki ratio greater than or equal to 10 fold between the Ki in the presence of SAM and the Ki in the presence of MTA) | C* (an IC50 ratio of less than 3 fold between the IC50 in the HAP1 MTAP-intact cell line and the HAP1 MTAP-deleted cell line) |

More lines, main results first:

| IC50 (PRMT5 [1]) | IC50 (PRMT5 [2]) | IC50 (HAP1 MTAP-intact) | IC50 (PRMT5 [3]) | IC50 (HAP1 MTAP-deleted) | SMILES | SAM/MTA Ratio (PRMT5 [2]) | MTAP Intact/Deleted Ratio (HAP1 MTAP-deleted) |
| --- | --- | --- | --- | --- | --- | --- | --- |
| 500 to 5000 nM | 50 to 500 nM | 1000 to 10000 nM | 50 to 500 nM | 1000 to 10000 nM | COc1cnc(NC2CCC2)cc1C(=O)NC[C@H](O)CN1CCc2cc(OCc3ocnc3C)ccc2C1 [Compound 602] | A (a Ki ratio greater than or equal to 10 fold between the Ki in the presence of SAM and the Ki in the presence of MTA) | C* (an IC50 ratio of less than 3 fold between the IC50 in the HAP1 MTAP-intact cell line and the HAP1 MTAP-deleted cell line) |
| 500 to 5000 nM | 50 to 500 nM | 1000 to 10000 nM | 50 to 500 nM | < 1000 nM | COc1cc(C(=O)NC[C@H](O)CN2CCc3c(ccc(OCc4ocnc4C)c3C)C2)cc(NC2CCN(C(C)=O)CC2)n1 [Compound 604, (S)-2-((1-acetylpiperidin-4-yl)amino)-N-(2-hydroxy-3-[5-methyl-6-((4-methyloxazol-5-yl)methoxy)-3,4-dihydroisoquinolin-2(1H)-yl)propyl)-6-methoxyisonicotinamide] | A (a Ki ratio greater than or equal to 10 fold between the Ki in the presence of SAM and the Ki in the presence of MTA) | A* (an IC50 ratio greater than or equal to 10 fold between the IC50 in the HAP1 MTAP-intact cell line and the HAP1 MTAP-deleted cell line) |
| ≥ 5000 nM | 50 to 500 nM | ≥ 10000 nM | 50 to 500 nM | 1000 to 10000 nM | CC(=O)N(C)[C@H]1CC[C@H](Nc2cc(C(=O)NC[C@H](O)CN3CCc4c(ccc(OCc5cnco5)c4C)C3)ncn2)CC1 [Compound 605, N-[(2S)-2-hydroxy-3-{5-methyl-6-[(1,3-oxazol-5-yl)methoxy]-1,2,3,4-tetrahydroisoquinolin-2-yl}propyl]-6-{[(1r,4r)-4-(N-methylacetamido)cyclohexyl]amino}pyrimidine-4-carboxamide] | A (a Ki ratio greater than or equal to 10 fold between the Ki in the presence of SAM and the Ki in the presence of MTA) | B* (an IC50 ratio greater than or equal to 3 fold but lower than 10 fold between the IC50 in the HAP1 MTAP-intact cell line and the HAP1 MTAP-deleted cell line) |
| 500 to 5000 nM | 50 to 500 nM | ≥ 10000 nM | 50 to 500 nM | 1000 to 10000 nM | CC(=O)N1CCC(Nc2cncc(C(=O)NC[C@H](O)CN3CCc4c(ccc(OCc5cnco5)c4C)C3)c2)CC1 [Compound 606, 5-[(1-acetylpiperidin-4-yl)amino]-N-[(2S)-2-hydroxy-3-{5-methyl-6-[(1,3-oxazol-5-yl)methoxy]-1,2,3,4-tetrahydroisoquinolin-2-yl}propyl]pyridine-3-carboxamide] | A (a Ki ratio greater than or equal to 10 fold between the Ki in the presence of SAM and the Ki in the presence of MTA) | C* (an IC50 ratio of less than 3 fold between the IC50 in the HAP1 MTAP-intact cell line and the HAP1 MTAP-deleted cell line) |
| 50 to 500 nM | < 50 nM | < 1000 nM | 50 to 500 nM | < 1000 nM | Cc1ncoc1COc1ccc2c(c1)CCN(C[C@@H](O)CNC(=O)c1cc(NC3CC4(CC4)C3)nc(N3CCN(C(=O)C4CC4)CC3)c1)C2 [Compound 611, (S)-2-(4-(cyclopropanecarbonyl)piperazin-1-yl)-N-(2-hydroxy-3-(6-((4-methyloxazol-5-yl)methoxy)-3,4-dihydroisoquinolin-2(1H)-yl)propyl)-6-(spiro[2.3]hexan-5-ylamino)isonicotinamide] | A (a Ki ratio greater than or equal to 10 fold between the Ki in the presence of SAM and the Ki in the presence of MTA) | B* (an IC50 ratio greater than or equal to 3 fold but lower than 10 fold between the IC50 in the HAP1 MTAP-intact cell line and the HAP1 MTAP-deleted cell line) |
